Results reported in article PMC5618341, “Controlled inhibition of methyltransferases using photoswitchable peptidomimetics: towards an epigenetic regulation of leukemia” (Chemical Science, 2017).
Like-named read-outs stand apart in the source and are kept apart here. Starred links: 1 amine or outer side, 2 acyl side, 3 side chain; linkers in the order of their positions; H or OH if unused. Positions of bridges follow the written chain, without caps; N, C: chain ends. Non-standard residues stand in square brackets, D forms with d. Residues, ends and D or L forms follow the SMILES beside them. *: point of attachment. AMPB(E) = O=C(c1ccc(/N=N/c2ccc(CN[*:1])cc2)cc1)[*:2]; AMPB = O=C(c1ccc(N=Nc2ccc(CN[*:1])cc2)cc1)[*:2]; X1 = O=C(c1ccc(/N=N\c2ccc(CN[*:1])cc2)cc1)[*:2]; d(αMeK) = C[C@@](N)(CCCCN)C(=O)O; dPhg = N[C@@H](C(=O)O)c1ccccc1; Isobutyryl = CC(C)C(=O)*; Abu = CC[C@H](N)C(=O)O; Ahx = NCCCCCC(=O)O; βAla = NCCC(=O)O

Experiments:
[1] = molecular target: T1, WDR5Δ23 (Homo sapiens, UniProt P61964); experiment: Fluorescence polarization (FP)-based competitive binding assay
T1 construct: His6-SUMO (N, cleaved yes); made in house; host or cells: E. coli DH5α (so in the source)

[2] = Proliferation / cell viability assay (CellTiter-Glo); format: cell-based, mouse
Description: (§1) We initially studied the cellular uptake and cell viability of our compounds in murine MLL-AF9-transduced mouse bone marrow cells (Fig. 5). In line with our expectations, peptidomimetics 16 and 17 that contained peptide 7 within their sequence are the ones that inhibited the cell proliferation of leukemia. […] Thus, while in the case of the trans isomer of peptidomimetic 16 we already determined less than 50% of viable cells at 2.5 μM concentration, with the WIN-containing conjugates 20 and 21 we measured 87% and 96% of viable cells at 50 μM concentration, respectively.
(§2) We then examined the potential of 16 and 17 to control externally the cellular response in proliferation assays. Thus, both isomers of both peptidomimetics were incubated at different concentrations for four days. After two days of incubation, the cells containing the cis isomers were irradiated at 430 nm for 90 seconds in a single isomerization cycle with a custom-made 6-well plate LED array.
(§3) MLL-AF9-transduced mouse bone marrow was cultured in IMDM medium + 15% FBS and supplemented with 10 ng/mL interleukin-3 (IL-3) at each passage, every other day.
(§4) DMSO) isomers, of peptides 7, 16, 17, as well as the peptides 18 and 19 were diluted from stock to culture media containing a 0.1% DMSO final concentration. For viability assays, […]
(§5) 72 h and DMSO as control . For the cis-trans group, after 48 h treatment with cis peptides, the plate was irradiated at […] for 90 sec and continued to culture for 2 days in the dark.
(§6) Viability was determined using the CellTiter-Glo Kit (Promega) according to the a a ’ d . was monitored on a Molecular Devices plate reader.

[3] = tested on: MLL-AF9-transduced mouse bone marrow cells; experiment: as above; format: cell-based; conditions: for Inhibition (%) of growth: 5 μM
Description: as §1, §2, §3, §4, §5, §6

[4] = molecular target: MLL1 core complex (MLL1, WDR5, RbBP5, and ASH2L) (Homo sapiens, UniProt P61964); experiment: biochemical
Description: To test this, we studied the inhibition of MLL1 H3K4 methyltransferase activity through the previously reported in vitro HMT assay using the MLL1 core complex (i.e. MLL1, WDR5, RbBP5, and ASH2L) and the H3 20mer peptide as substrate.[17]
In Vitro Methyl Transferase Assay with MLL1 Core Complex
In Vitro Histone Methyltransferase (HMT) Assay
The HMT assay was performed, as previously described[25] with slight modifications, in 50 mM Tris pH 8.0, 50 mM NaCl, 1.0 mM DTT, 5 mM MgCl2 at room temperature. Each reaction contained 1.5 μM of the cofactor 3H-S-adenosylmethionine (Perkin-Elmer). H31-21 peptide was used as the substrate at 250 μM. […] Reactions were initiated by addition of the H3/SAM and allowed to proceed for 60 min before preparing scintillation counting. To count samples, reactions were spotted on separate squares of P81 filter paper (Millipore) and precipitated by submerging in freshly prepared 50 mM sodium bicarbonate buffer pH = 9.0. After washing and drying, the samples were vortexed in Ultima Gold scintillation fluid and counted.

[5] = non-irradiated peptide (trans isomer), 72 nM WDR5Δ23, 20 nM tracer 22, read-out: IC50, non-irradiated (trans)
[6] = non-irradiated peptide (trans isomer), 72 nM WDR5Δ23, 20 nM tracer 22, read-out: Ki, non-irradiation (trans)
[7] = IC50 cis (with 5 nM tracer), cis isomer (366 nm), 20 nM WDR5Δ23, 5 nM tracer 22
[8] = IC50 trans (with 5 nM tracer), trans isomer, 20 nM WDR5Δ23, 5 nM tracer 22

Molecule | IC50 [1, 5] | Ki [1, 6] | further results
CC(C)C[C@H](NC(=O)[C@H](Cc1c[nH]cn1)NC(=O)[C@@H](NC(=O)[C@H](CCC(=O)O)NC(=O)[C@H](C)NC(=O)[C@H](CCCNC(=N)N)NC(=O)c1ccc(N=Nc2ccc(CNC(=O)[C@@H](N)CO)cc2)cc1)C(C)C)C(=O)N[C@@H](CCCNC(=N)N)C(=O)N[C@@H](CCCCN)C(=O)N[C@@H](CO)C(N)=O [peptide 5, H2N-SXRAEVHLRKS-CONH2] (H-S[AMPB]RAEVHLRKS-NH2) | 3910 ± 830 nM | 66.8 ± 10 nM | 
H2N-SXARAEVHLRKS-CONH2 [peptide 4, X = AMPB] |  |  | binding constant to WDR5 (in words) ([1]; both isomers): not possible to obtain measurable binding constants
CC(C)C[C@H](NC(=O)[C@H](Cc1c[nH]cn1)NC(=O)[C@@H](NC(=O)[C@H](CCC(=O)O)NC(=O)[C@H](C)NC(=O)[C@H](CCCNC(=N)N)NC(=O)[C@H](C)NC(=O)[C@@H](N)CO)C(C)C)C(=O)N[C@@H](CCCNC(=N)N)C(=O)N[C@@H](CCCCN)C(=O)N[C@@H](CO)C(=O)N[C@@H](CCCNC(=N)N)C(=O)NCCCCCC(=O)N[C@@H](CCCNC(=N)N)C(=O)N[C@@H](CCCNC(=N)N)C(=O)NCCCCCC(=O)N[C@@H](CCCNC(=N)N)C(=O)N[C@@H](CCCNC(=N)N)C(=O)NCCCCCC(=O)N[C@@H](CCCNC(=N)N)C(=O)N[C@@H](CCCNC(=N)N)C(=O)NCCCCCC(=O)N[C@@H](CCCNC(=N)N)C(=O)NCCCCCC(=O)NCCC(N)=O [peptide 21] (H-SARAEVHLRKSR[Ahx]RR[Ahx]RR[Ahx]RR[Ahx]R[Ahx][βAla]-NH2) | 612 ± 20 nM | 8.67 ± 0.32 nM | viability at 50 µM [2]: 96%
CC(C)C[C@H](NC(=O)[C@H](Cc1c[nH]cn1)NC(=O)[C@@H](NC(=O)c1ccc(/N=N\c2ccc(CNC(=O)[C@H](C)NC(=O)[C@H](CCCNC(=N)N)NC(=O)[C@H](C)NC(=O)[C@@H](N)CO)cc2)cc1)C(C)C)C(=O)N[C@@H](CCCNC(=N)N)C(=O)N[C@@H](CCCCN)C(=O)N[C@@H](CO)C(=O)N[C@@H](CCCNC(=N)N)C(=O)N[C@@H](CCCNC(=N)N)C(=O)N[C@@H](CCCNC(=N)N)C(=O)N[C@@H](CCCNC(=N)N)C(=O)N[C@@H](CCCNC(=N)N)C(=O)N[C@@H](CCCNC(=N)N)C(=O)N[C@@H](CCCNC(=N)N)C(=O)N[C@@H](CCCNC(=N)N)C(N)=O [16cis, H2N-SARA-AMPB-VHLRKS-R8-NH2] (H-SARA[X1]VHLRKSRRRRRRRR-NH2) |  |  | GI50 ([3]; 96 h): 2.88 ± 0.24 µM
CC(C)[C@H](NC(=O)[C@H](CCC(=O)O)NC(=O)[C@H](C)NC(=O)[C@H](CCCNC(=N)N)NC(=O)[C@H](C)NC(=O)[C@@H](N)CO)C(=O)N[C@@H](Cc1c[nH]cn1)C(=O)NCc1ccc(N=Nc2ccc(C(=O)N[C@@H](CCCNC(=N)N)C(=O)N[C@@H](CCCCN)C(=O)N[C@@H](CO)C(N)=O)cc2)cc1 [peptide 10, H2N-SARAEVHXRKS-CONH2] (H-SARAEVH[AMPB]RKS-NH2) | 1150 ± 120 nM | 17 ± 1.9 nM | 
CC(C)C[C@H](NC(=O)c1ccc(N=Nc2ccc(CNC(=O)[C@@H](NC(=O)[C@H](CCC(=O)O)NC(=O)[C@H](C)NC(=O)[C@H](CCCNC(=N)N)NC(=O)[C@H](C)NC(=O)[C@@H](N)CO)C(C)C)cc2)cc1)C(=O)N[C@@H](CCCNC(=N)N)C(=O)N[C@@H](CCCCN)C(=O)N[C@@H](CO)C(N)=O [peptide 9, H2N-SARAEVXLRKS-CONH2] (H-SARAEV[AMPB]LRKS-NH2) | 2530 ± 390 nM | 40.4 ± 3.9 nM | 
CC[C@@H]1NC(=O)[C@H](CCCN=C(N)N)NC(=O)[C@](C)(NC(=O)C(C)C)CCCCNC(=O)[C@@H](c2ccccc2)NC1=O [MM401, reference compound] (Isobutyryl-[d(αMeK)]R[Abu][dPhg]; lactam 1-C) |  |  | GI50 ([3]; 96 h incubation, cis isomers kept in the dark, read-out: GI50): 9.76 µM
CC(C)C[C@H](NC(=O)[C@H](Cc1c[nH]cn1)NC(=O)[C@@H](NC(=O)c1ccc(/N=N\c2ccc(CNC(=O)[C@H](C)NC(=O)[C@H](CCCNC(=N)N)NC(=O)[C@H](C)NC(=O)[C@@H](N)CO)cc2)cc1)C(C)C)C(=O)N[C@@H](CCCNC(=N)N)C(=O)N[C@@H](CCCCN)C(=O)N[C@@H](CO)C(N)=O [7cis, H2N-SARAXVHLRKS-CONH2] (H-SARA[X1]VHLRKS-NH2) |  |  | IC50 [1, 7]: 147 ± 14 nM; Inhibition (%) of growth ([3]; 96 h incubation): ≈ 0%; IC50 [4]: 8.23 ± 0.38 µM
CC(C)C[C@H](NC(=O)[C@H](Cc1c[nH]cn1)NC(=O)c1ccc(N=Nc2ccc(CNC(=O)[C@H](CCC(=O)O)NC(=O)[C@H](C)NC(=O)[C@H](CCCNC(=N)N)NC(=O)[C@H](C)NC(=O)[C@@H](N)CO)cc2)cc1)C(=O)N[C@@H](CCCNC(=N)N)C(=O)N[C@@H](CCCCN)C(=O)N[C@@H](CO)C(N)=O [peptide 8, H2N-SARAEXHLRKS-CONH2] (H-SARAE[AMPB]HLRKS-NH2) | 210 ± 35 nM | 2.4 ± 0.6 nM | 
CC(C)C[C@H](NC(=O)[C@H](Cc1c[nH]cn1)NC(=O)[C@@H](NC(=O)[C@H](CCC(=O)O)NC(=O)[C@H](C)NC(=O)[C@H](CCCNC(=N)N)NC(=O)[C@H](C)NC(=O)[C@@H](N)CO)C(C)C)C(=O)N[C@@H](CCCNC(=N)N)C(=O)N[C@@H](CCCCN)C(=O)N[C@@H](CO)C(=O)N[C@@H](CCCNC(=N)N)C(=O)N[C@@H](CCCNC(=N)N)C(=O)N[C@@H](CCCNC(=N)N)C(=O)N[C@@H](CCCNC(=N)N)C(=O)N[C@@H](CCCNC(=N)N)C(=O)N[C@@H](CCCNC(=N)N)C(=O)N[C@@H](CCCNC(=N)N)C(=O)N[C@@H](CCCNC(=N)N)C(N)=O [peptide 20] (H-SARAEVHLRKSRRRRRRRR-NH2) | 368 ± 20 nM | 4.83 ± 0.31 nM | viability at 50 µM [2]: 87%
CC(C)C[C@H](NC(=O)[C@H](Cc1c[nH]cn1)NC(=O)[C@@H](NC(=O)[C@H](CCC(=O)O)NC(=O)[C@H](C)NC(=O)[C@H](CCCNC(=N)N)NC(=O)[C@H](C)NC(=O)[C@@H](N)CO)C(C)C)C(=O)NCc1ccc(N=Nc2ccc(C(=O)N[C@@H](CCCCN)C(=O)N[C@@H](CO)C(N)=O)cc2)cc1 [peptide 11, H2N-SARAEVHLXKS-CONH2] (H-SARAEVHL[AMPB]KS-NH2) | 2140 ± 280 nM | 32.8 ± 4.5 nM | 
CC(=O)N[C@@H](C)C(=O)N[C@@H](CCCNC(=N)N)C(=O)N[C@H](C(=O)NCc1ccc(N=Nc2ccc(C(=O)N[C@H](C(=O)N[C@@H](Cc3ccc(O)cc3)C(N)=O)C(C)C)cc2)cc1)[C@@H](C)O [peptide 15, Ac-ARTXVY-CONH2] (Ac-ART[AMPB]VY-NH2) | 109 ± 10 nM | 0.767 ± 0.15 nM | 
CC(C)C[C@H](NC(=O)[C@H](Cc1c[nH]cn1)NC(=O)[C@@H](NC(=O)[C@H](CCC(=O)O)NC(=O)[C@H](C)NC(=O)[C@H](CCCNC(=N)N)NC(=O)[C@H](C)NC(=O)[C@@H](N)CO)C(C)C)C(=O)N[C@@H](CCCNC(=N)N)C(=O)NCc1ccc(N=Nc2ccc(C(=O)N[C@@H](CO)C(N)=O)cc2)cc1 [peptide 12, H2N-SARAEVHLRXS-CONH2] (H-SARAEVHLR[AMPB]S-NH2) | 1320 ± 110 nM | 19.8 ± 1.7 nM | 
CC(C)C[C@H](NC(=O)[C@H](Cc1c[nH]cn1)NC(=O)c1ccc(N=Nc2ccc(CNC(=O)[C@H](C)NC(=O)[C@H](CCCNC(=N)N)NC(=O)[C@H](C)NC(=O)[C@@H](N)CO)cc2)cc1)C(=O)N[C@@H](CCCNC(=N)N)C(=O)N[C@@H](CCCCN)C(=O)N[C@@H](CO)C(N)=O [peptide 13, H2N-SARAXHLRKS-CONH2] (H-SARA[AMPB]HLRKS-NH2) | 293 ± 50 nM | 3.63 ± 0.8 nM | 
CC(C)C[C@H](NC(=O)[C@H](Cc1c[nH]cn1)NC(=O)[C@@H](NC(=O)c1ccc(/N=N/c2ccc(CNC(=O)[C@H](C)NC(=O)[C@H](CCCNC(=N)N)NC(=O)[C@H](C)NC(=O)[C@@H](N)CO)cc2)cc1)C(C)C)C(=O)N[C@@H](CCCNC(=N)N)C(=O)N[C@@H](CCCCN)C(=O)N[C@@H](CO)C(N)=O [7trans, H2N-SARAXVHLRKS-CONH2] (H-SARA[AMPB(E)]VHLRKS-NH2) |  |  | IC50 [1, 8]: 57 ± 11 nM; Inhibition (%) of growth ([3]; 96 h incubation): 0%; IC50 [4]: 0.531 ± 0.023 µM
CC(=O)N[C@@H](C)C(=O)N[C@@H](CCCNC(=N)N)C(=O)N[C@@H](C)C(=O)NCc1ccc(N=Nc2ccc(C(=O)N[C@H](C(=O)N[C@@H](Cc3c[nH]cn3)C(=O)N[C@@H](CC(C)C)C(=O)N[C@@H](CCCNC(=N)N)C(=O)N[C@@H](CCCCN)C(=O)N[C@@H](CO)C(N)=O)C(C)C)cc2)cc1 [peptide 14, Ac-ARAXVHLRKS-CONH2] (Ac-ARA[AMPB]VHLRKS-NH2) |  | 1.45 ± 0.52 nM | IC50 [1, 7]: 102 ± 15 nM; IC50 [1, 8]: 45 ± 11 nM; Ki ([1]; Ki cis (with 5 nM tracer), cis isomer (366 nm), 20 nM WDR5Δ23, 5 nM tracer 22): 4.5 ± 0.82 nM; Ki ([1]; Ki trans (with 5 nM tracer), trans isomer, 20 nM WDR5Δ23, 5 nM tracer 22): 1.5 ± 0.63 nM
